According to ChEMBL document CHEMBL3792288, “VP1 crystal structure-guided exploration and optimization of 4,5-dimethoxybenzene-based inhibitors of rhinovirus 14 infection” (Eur J Med Chem, 2016):
The source made the active and inactive calls. No cut-off for these calls is given here.

What was measured:
Rhinovirus B = experiment: Antiviral activity against Human Rhinovirus B serotype 14 infected in HeLa Rh cells assessed as reduction of virus-induced cytopathic effect after 3 days by MTS assay; format: functional, organism-based; conditions: serotype 14, HeLa Rh, 72 h
Rhinovirus A = experiment: Antiviral activity against Human Rhinovirus A serotype 2 infected in HeLa Rh cells assessed as reduction of virus-induced cytopathic effect after 3 days by MTS assay; format: functional, cell-based
[1] = Cytotoxicity against human HeLa Rh cells assessed as cell viability by light microscopy; format: cell-based
[2] = Selectivity index, ratio of CC50 for human HeLa Rh cells to EC50 for Human Rhinovirus B serotype 14 infected in HeLa Rh cells; format: toxicity, cell-based; conditions: read-out: Ratio CC50/EC50

COc1cc(CC(O)c2ccc(-c3ccc(CO)cc3)cc2)c([N+](=O)[O-])cc1OC (stereo not drawn)
EC50 (Rhinovirus B): > 244 µM
Activity (Rhinovirus A): inactive
CC50 [1]: > 244 µM

COc1cc(CC(O)c2cccc(-c3ccc(Cl)cc3)c2)c([N+](=O)[O-])cc1OC (stereo not drawn)
EC50 (Rhinovirus B): > 5 µM
Activity (Rhinovirus A): inactive
CC50 [1]: 5 µM

COc1cc(CC(O)c2ccc(-c3ccccc3C#N)cc2)c([N+](=O)[O-])cc1OC (stereo not drawn)
EC50 (Rhinovirus B): > 9.3 µM
Activity (Rhinovirus A): inactive
CC50 [1]: 9.3 µM

COc1cc(CC(O)c2ccc(-c3cccc(CO)c3)cc2)c([N+](=O)[O-])cc1OC (stereo not drawn)
EC50 (Rhinovirus B): 1.4 µM
Activity (Rhinovirus A): inactive
selectivity ratio [2]: 4.3
CC50 [1]: 6 µM

COc1cc(CC(O)c2ccc(-c3cccs3)cc2)c([N+](=O)[O-])cc1OC (stereo not drawn)
EC50 (Rhinovirus B): 1.6 µM
Activity (Rhinovirus A): inactive
selectivity ratio [2]: 6.9
CC50 [1]: 11 µM

COc1cc(CC(O)c2ccc(-c3cccnc3)cc2)c([N+](=O)[O-])cc1OC (stereo not drawn)
EC50 (Rhinovirus B): 2 µM
Activity (Rhinovirus A): inactive
selectivity ratio [2]: > 132
CC50 [1]: > 263 µM

COc1cc(CC(O)c2ccc(-c3ccc(Br)cc3)cc2)c([N+](=O)[O-])cc1OC (stereo not drawn)
EC50 (Rhinovirus B): > 4.3 µM
Activity (Rhinovirus A): inactive
CC50 [1]: 4.3 µM

COc1cc(CC(O)c2cccc(-c3ccc(C#N)cc3)c2)c([N+](=O)[O-])cc1OC (stereo not drawn)
EC50 (Rhinovirus B): > 9.3 µM
Activity (Rhinovirus A): inactive
CC50 [1]: 9.3 µM

COc1cc(CC(O)c2ccc(-c3ccc(F)cc3)cc2)c([N+](=O)[O-])cc1OC (stereo not drawn)
EC50 (Rhinovirus B): > 4.5 µM
Activity (Rhinovirus A): inactive
CC50 [1]: 4.5 µM

COc1cc(CC(O)c2ccc(-c3ccccc3F)cc2)c([N+](=O)[O-])cc1OC (stereo not drawn)
EC50 (Rhinovirus B): > 5 µM
Activity (Rhinovirus A): inactive
CC50 [1]: 5 µM

COc1cc(CC(O)c2ccc(-c3ccc(Cl)cc3)cc2)c([N+](=O)[O-])cc1OC (stereo not drawn)
EC50 (Rhinovirus B): > 4.1 µM
Activity (Rhinovirus A): inactive
CC50 [1]: 4.1 µM

COc1cc(CC(O)c2ccc(-c3ccc(C)cc3)cc2)c([N+](=O)[O-])cc1OC (stereo not drawn)
EC50 (Rhinovirus B): > 4.7 µM
Activity (Rhinovirus A): inactive
CC50 [1]: 4.7 µM

Cc1cc(CCCOc2c(C)cc(-c3noc(C(F)(F)F)n3)cc2C)on1 [PLECONARIL]
EC50 (Rhinovirus B): 0.2 µM
Activity (Rhinovirus A): inactive
CC50 [1]: 50.2 µM

COc1cc(CC(O)c2ccc(-c3ccccc3[N+](=O)[O-])cc2)c([N+](=O)[O-])cc1OC (stereo not drawn)
EC50 (Rhinovirus B): 1.5 µM
Activity (Rhinovirus A): inactive
selectivity ratio [2]: 6.3
CC50 [1]: 9.5 µM

COc1cc(CC(O)c2ccc(-c3cccc([N+](=O)[O-])c3)cc2)c([N+](=O)[O-])cc1OC (stereo not drawn)
EC50 (Rhinovirus B): 2.2 µM
Activity (Rhinovirus A): inactive
selectivity ratio [2]: 2.5
CC50 [1]: 5.5 µM

COc1cc(CC(O)c2ccc(-c3ccc([N+](=O)[O-])cc3)cc2)c([N+](=O)[O-])cc1OC (stereo not drawn)
EC50 (Rhinovirus B): 4.7 µM
Activity (Rhinovirus A): inactive
selectivity ratio [2]: 4.5
CC50 [1]: 21 µM

COc1cc(CC(O)c2ccc(-c3ccccc3CO)cc2)c([N+](=O)[O-])cc1OC (stereo not drawn)
EC50 (Rhinovirus B): 3 µM
Activity (Rhinovirus A): inactive
selectivity ratio [2]: 8
CC50 [1]: 24 µM

COc1cc(CC(O)c2ccc(C#N)cc2)c([N+](=O)[O-])cc1OC (stereo not drawn)
EC50 (Rhinovirus B): 2.2 µM
CC50 [1]: 104 µM

COc1ccc(-c2ccc(C(O)Cc3cc(OC)c(OC)cc3[N+](=O)[O-])cc2)cc1 (stereo not drawn)
EC50 (Rhinovirus B): > 244 µM
Activity (Rhinovirus A): inactive
CC50 [1]: > 244 µM

COc1cc(CC(O)c2ccc(-c3cccc(C#N)c3)cc2)c([N+](=O)[O-])cc1OC (stereo not drawn)
EC50 (Rhinovirus B): 1.4 µM
Activity (Rhinovirus A): inactive
selectivity ratio [2]: 3.7
CC50 [1]: 5.2 µM

COc1cc(CC(O)c2ccc(-c3ccccc3)cc2)c([N+](=O)[O-])cc1OC (stereo not drawn)
EC50 (Rhinovirus B): 1.97 µM

COc1cc(CC(O)c2ccc(-c3ccc(C=O)cc3)cc2)c([N+](=O)[O-])cc1OC (stereo not drawn)
EC50 (Rhinovirus B): > 245 µM
Activity (Rhinovirus A): inactive
CC50 [1]: > 245 µM

COc1cc(CC(O)c2ccc(-c3cccc(Cl)c3)cc2)c([N+](=O)[O-])cc1OC (stereo not drawn)
EC50 (Rhinovirus B): 1.7 µM
Activity (Rhinovirus A): inactive
selectivity ratio [2]: 3.5
CC50 [1]: 5.9 µM

COc1cc(CC(O)c2ccc(-c3ccc(C(F)(F)F)cc3)cc2)c([N+](=O)[O-])cc1OC (stereo not drawn)
EC50 (Rhinovirus B): > 6 µM
Activity (Rhinovirus A): inactive
CC50 [1]: 4.1 µM

COc1cc(CC(O)c2ccc(-c3ccoc3)cc2)c([N+](=O)[O-])cc1OC (stereo not drawn)
EC50 (Rhinovirus B): 1.6 µM
Activity (Rhinovirus A): inactive
selectivity ratio [2]: 3.3
CC50 [1]: 5.3 µM

COc1cc(CC(O)c2ccc(-c3cccc(F)c3)cc2)c([N+](=O)[O-])cc1OC (stereo not drawn)
EC50 (Rhinovirus B): 2.2 µM
Activity (Rhinovirus A): inactive
selectivity ratio [2]: 3.4
CC50 [1]: 7.4 µM

COc1cc(CC(O)c2ccc(-c3ccc(C#N)cc3)cc2)c([N+](=O)[O-])cc1OC (stereo not drawn)
EC50 (Rhinovirus B): > 4.7 µM
Activity (Rhinovirus A): inactive
CC50 [1]: 4.7 µM

COc1cc(CC(O)c2ccc(-c3ccncc3)cc2)c([N+](=O)[O-])cc1OC (stereo not drawn)
EC50 (Rhinovirus B): 3.4 µM
Activity (Rhinovirus A): inactive
selectivity ratio [2]: > 77.3
CC50 [1]: > 263 µM
